Experimental data published in ChEMBL document CHEMBL1134772, “Synthesis and evaluation of hydroxylated polyamine analogues as antiproliferatives” (J Med Chem, 2001).

Key:
[1] = molecular target: T1, Ornithine decarboxylase (Mus musculus) (UniProt P00860); test: Percent of ornithine decarboxylase enzyme activity in L1210 cells after 4 hr of treatment with 1 uM of dose; type: cell-based
T1 sequence (whole entry): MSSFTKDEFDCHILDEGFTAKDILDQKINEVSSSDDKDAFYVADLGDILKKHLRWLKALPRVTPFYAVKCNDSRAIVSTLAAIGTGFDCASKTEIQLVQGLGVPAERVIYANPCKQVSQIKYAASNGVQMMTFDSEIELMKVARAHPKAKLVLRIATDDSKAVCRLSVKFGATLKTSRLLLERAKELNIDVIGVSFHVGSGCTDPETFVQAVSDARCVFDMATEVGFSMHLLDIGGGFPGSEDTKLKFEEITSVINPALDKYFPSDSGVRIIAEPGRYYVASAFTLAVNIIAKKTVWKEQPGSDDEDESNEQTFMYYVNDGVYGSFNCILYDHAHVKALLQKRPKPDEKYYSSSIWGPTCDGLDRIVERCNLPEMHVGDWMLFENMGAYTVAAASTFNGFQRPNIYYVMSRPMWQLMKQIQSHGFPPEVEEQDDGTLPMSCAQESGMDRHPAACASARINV

L1210 [2] = test: Amount of compound present per 10e6 L1210 cells after 48 hr of treatment with 100 uM of dose; type: functional, cell-based; settings: Mus musculus
[3] = molecular target: T2, Spermidine/spermine N(1)-acetyltransferase (SAT) (Mus musculus) (UniProt Q6P8J2+P48026); test: Percent of Spermidine/spermine-N1- acetyltransferase enzyme activity in L1210 cells after 48 hr of treatment with 10 uM of dose; type: cell-based
L1210 [4] = test: Effect of compound on the level of spermidine in polyamine pools of L1210 cells after 48 hr of treatment with 100 uM of dose; type: functional, Mus musculus
L1210 [5] = test: Inhibition of transport of [3H]spermidine in L1210 cells; type: functional, cell-based, Mus musculus
L1210 [6] = test: Inhibitory concentration of compound against the growth of the L1210 cell line at 48 hr; type: functional, cell-based; settings: Mus musculus, L1210, 48 h
L1210 [7] = test: Effect of compound on the level of putrescine in polyamine pools of L1210 cells after 48 hr of treatment with 20 uM of dose; type: functional, Mus musculus
L1210 [8] = test: Amount of compound present per 10e6 L1210 cells after 48 hr of treatment with 20 uM of dose; type: functional, cell-based; settings: Mus musculus
[9] = Number of CD-1 mice died in a 5-day course after administration of 100 mg/kg dose of compound; 0/5; type: functional, Mus musculus
L1210 [10] = test: Effect of compound on the level of spermine in polyamine pools of L1210 cells after 48 hr of treatment with 100 uM of dose; type: functional, Mus musculus
[11] = Number of CD-1 mice died in a 5-day course after administration of 25 mg/kg dose of compound; 0/7; type: functional, Mus musculus
L1210 [12] = test: Effect of compound on the level of spermine in polyamine pools of L1210 cells after 48 hr of treatment with 20 uM of dose; type: functional, Mus musculus
[13] = Number of CD-1 mice died in a 5-day course after administration of 50 mg/kg dose of compound; 0/7; type: functional, Mus musculus
[14] = Number of CD-1 mice died in a 5-day course after administration of 10 mg/kg dose of compound; 0/7; type: functional, Mus musculus
[15] = Number of CD-1 mice died after administration of 100 mg/kg dose of compound; 1/5; type: functional, Mus musculus
L1210 [16] = test: Inhibitory concentration of compound against the growth of the L1210 cell line at 96 hr; type: functional, cell-based; settings: Mus musculus, L1210, 96 h
L1210 [17] = test: Percent of S-adenosyl-methionine decarboxylase enzyme activity in L1210 cells after 6 hr of treatment with 1 uM of dose; type: cell-based
[18] = Number of CD-1 mice died in a 5-day course after administration of 75 mg/kg dose of compound; 0/5; type: functional, Mus musculus
[19] = Number of CD-1 mice died after administration of 200 mg/kg dose of compound; 5/5; type: functional, Mus musculus
L1210 [20] = test: Effect of compound on the level of spermidine in polyamine pools of L1210 cells after 48 hr of treatment with 20 uM of dose; type: functional, Mus musculus
L1210 [21] = test: Effect of compound on the level of putrescine in polyamine pools of L1210 cells after 48 hr of treatment with 100 uM of dose; type: functional, Mus musculus
[22] = Number of CD-1 mice died after administration of 325 mg/kg dose of compound; 5/10; type: functional, Mus musculus
L1210 [23] = test: Effect of compound on the level of spermidine in polyamine pools of L1210 cells after 48 hr of treatment with 10 uM of dose; type: functional, Mus musculus
L1210 [24] = test: Effect of compound on the level of putrescine in polyamine pools of L1210 cells after 48 hr of treatment with 10 uM of dose; type: functional, Mus musculus
L1210 [25] = test: Amount of compound present per 10e6 L1210 cells after 48 hr of treatment with 10 uM of dose; type: functional, cell-based; settings: Mus musculus
[26] = Number of CD-1 mice died in a 6-day course after administration of 200 mg/kg dose of compound; 10/12; type: functional, Mus musculus
L1210 [27] = test: Effect of compound on the level of spermine in polyamine pools of L1210 cells after 48 hr of treatment with 10 uM of dose; type: functional, Mus musculus
[28] = Number of CD-1 mice died after administration of 400 mg/kg dose of compound; 0/5; type: functional, Mus musculus
[29] = molecular target: T1, Ornithine decarboxylase (Mus musculus); test: Percent of ornithine decarboxylase enzyme activity in L1210 cells after 4 hr of treatment with 1 uM dose of compound; type: cell-based
[30] = molecular target: T2, Spermidine/spermine N(1)-acetyltransferase (SAT) (Mus musculus); test: Percent of Spermidine/spermine-N1- acetyltransferase enzyme activity in L1210 cells after 48 hr of treatment with 10 uM dose of compound; type: cell-based
[31] = Number of CD-1 mice died after administration of 100 mg/kg dose of compound; 0/5; type: functional, Mus musculus
L1210 [32] = test: Effect of compound on the level of spermine in polyamine pools of L1210 cells after 48 hr of treatment with 20 uM compound dose; type: functional, Mus musculus
[33] = Number of CD-1 mice died in a 5-day course after administration of 200 mg/kg dose of compound; 0/5; type: functional, Mus musculus
[34] = Number of CD-1 mice died in a 5-day course after administration of 300 mg/kg dose of compound; 0/5; type: functional, Mus musculus
L1210 [35] = test: Effect of compound on the level of spermine in polyamine pools of L1210 cells after 48 hr of treatment with 4 uM compound dose; type: functional, Mus musculus
L1210 [36] = test: Effect of compound on the level of spermidine in polyamine pools of L1210 cells after 48 hr of treatment with 20 uM compound dose; type: functional, Mus musculus
[37] = Number of CD-1 mice died after administration of 200 mg/kg dose of compound; 0/5; type: functional, Mus musculus
L1210 [38] = test: Amount of compound present per 10e6 L1210 cells after 48 hr of treatment with 20 uM of it; type: functional, cell-based; settings: Mus musculus
L1210 [39] = test: Inhibition of transport of [3H]-spermidine by L1210 cells; type: functional, cell-based, Mus musculus
L1210 [40] = test: Effect of compound on the level of spermidine in polyamine pools of L1210 cells after 48 hr of treatment with 4 uM compound dose; type: functional, Mus musculus
L1210 [41] = test: Effect of compound on the level of putrescine in polyamine pools of L1210 cells after 48 hr of treatment with 20 uM compound dose; type: functional, Mus musculus
L1210 [42] = test: Percent of S-adenosyl-methionine decarboxylase enzyme activity in L1210 cells after 6 hr of treatment with 1 uM dose of compound; type: cell-based
L1210 [43] = test: Effect of compound on the level of putrescine in polyamine pools of L1210 cells after 48 hr of treatment with 4 uM compound dose; type: functional, Mus musculus
L1210 [44] = test: Amount of compound present per 10e6 L1210 cells after 48 hr of treatment with 4 uM of it; type: functional, cell-based; settings: Mus musculus

T2 sequence (P48026 whole entry, looked up): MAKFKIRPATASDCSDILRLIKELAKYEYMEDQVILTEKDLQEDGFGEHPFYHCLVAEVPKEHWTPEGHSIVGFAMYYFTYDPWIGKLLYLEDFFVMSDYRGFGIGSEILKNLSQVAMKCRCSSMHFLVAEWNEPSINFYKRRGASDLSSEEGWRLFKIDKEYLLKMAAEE
T2 sequence (Q6P8J2 whole entry, looked up): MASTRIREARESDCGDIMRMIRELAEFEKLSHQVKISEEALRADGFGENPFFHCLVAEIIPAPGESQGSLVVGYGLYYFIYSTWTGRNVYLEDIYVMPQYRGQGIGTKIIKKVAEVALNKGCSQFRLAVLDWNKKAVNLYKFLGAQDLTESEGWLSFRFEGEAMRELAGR

For `CCNC[C@H](O)CNCCCNC[C@@H](O)CNCC`, the Control [1] was 61%.
`CCNCCCNCCCNCCCNCC1CC1` showed a Concentration (L1210 [2]) of 2.59 nM, a Control [3] of 3260% and a Control (L1210 [4]) of 16%. For the same compound, the Ki (L1210 [5]) was 13 µM, the Control [1] was 26% and the IC50 (L1210 [6]) was 16 µM. The Control (L1210 [7]) was 22%, the Concentration (L1210 [8]) was 2.17 nM and the “No. of deaths/mice injected” value [9] was 0. For the same compound, the Control (L1210 [10]) was 56%, the “No. of deaths/mice injected” value [11] was 0 and the Control (L1210 [12]) was 66%. The “No. of deaths/mice injected” value [13] was 0, the “No. of deaths/mice injected” value [14] was 0 and the “No. of deaths/mice injected” value [15] was 1. For the same compound, the IC50 (L1210 [16]) was 0.55 µM, the Control (L1210 [17]) was 48% and the “No. of deaths/mice injected” value [18] was 0. The “No. of deaths/mice injected” value [19] was 5, the Control (L1210 [20]) was 25% and the Control (L1210 [21]) was 13%.
`CCNCCCNCCCNCCCNCC` [BIS(ETHYL)NORSPERMINE] showed a Concentration (L1210 [2]) of 2.44 nM, a Control [3] of 3880% and a Control (L1210 [4]) of 6%. The Ki (L1210 [5]) was 7 µM, the Control [1] was 7% and the Control (L1210 [10]) was 30%. For the same compound, the “No. of deaths/mice injected” value [22] was 5, the Control (L1210 [23]) was 14% and the Control (L1210 [17]) was 42%. For the same compound, the Control (L1210 [24]) was 30%, the Concentration (L1210 [25]) was 1.59 nM and the “No. of deaths/mice injected” value [26] was 10. The Control (L1210 [27]) was 31% and the Control (L1210 [21]) was 0%.
With `CCNC[C@H](O)CNCCCNC[C@@H](O)CNCC1CC1` the “No. of deaths/mice injected” value [28] was 0, the Control [29] was 37% and the IC50 (L1210 [6]) was 4.5 µM. For the same compound, the Control [30] was 2500%, the “No. of deaths/mice injected” value [31] was 0 and the “No. of deaths/mice injected” value [9] was 0. The Control (L1210 [32]) was 123%, the “No. of deaths/mice injected” value [33] was 0 and the “No. of deaths/mice injected” value [34] was 0. For the same compound, the Control (L1210 [35]) was 119%, the IC50 (L1210 [16]) was 0.97 µM and the Control (L1210 [36]) was 32%. For the same compound, the “No. of deaths/mice injected” value [37] was 0, the Amount (nmol/10^6 cells) (L1210 [38]) was 3.05 and the Ki (L1210 [39]) was 40 µM. It also gave a Control (L1210 [40]) of 48%, a Control (L1210 [41]) of 20% and a Control (L1210 [42]) of 59%. The Control (L1210 [43]) was 43% and the Amount (nmol/10^6 cells) (L1210 [44]) was 1.94.
`CCNC[C@@H](O)CNCCCNC[C@H](O)CNCC` gave a Control [1] of 35%.
